Assay results: US9981964B2 (Agency for Science, Technology and Research, priority 2013, dated 2018)

system: HEK293-STF3A cells; test: STF3A assay (STF luciferase reporter in Wnt3A-expressing HEK293 cells); assay type: cell-based; settings: Homo sapiens, 24 h, 1 day of treatment
Description: HEK293-STF cell line was modified from Human embryonic kidney cell line HEK293 transfected with the STF reporter. HEK293-STF3A cell line was further modified from HEK293-STF cell line to express Wnt3A. This cell line was used to identify compounds that regulate either early or late signaling components of the Wnt pathway. These two cell lines were obtained from David Virshup's laboratory, Duke-NUS. L-Wnt3A (ATCC, #CRL-2647) cell line was used for providing Wnt3A conditioned media. The three cell lines were grown in DMEM with 10% FBS incubated in 37° C. with 5% CO2.
2×10^4 HEK293-STF3A cells in 75 μl culture media were seeded in each well of white 96 well plates (Greiner #655098) and incubated overnight at 37° C. 25 μl serially diluted compound was added to the cells to give final concentration of 50 μM to 1.5 nM. After 1 day of treatment, 100 μl of Steady-Glo Luciferase Assay reagent (#E2520, Promega) was added to each well and incubated for 10 minutes at room temperature. Luminescence was measured using Tecan Safire2 plate reader.

Structure (SMILES) | IC50 [nM]
CN1C(=O)C2=C(C1=O)N(CC(=O)Nc1ccc(-c3cccnn3)cc1)CCC2 [Compound 47, 2-(6-methyl-5,7-dioxo-2,3,4,5,6,7-hexahydro-1H-pyrrolo[3,4-b]pyridin-1-yl)-N-(4-(pyridazin-3-yl)phenyl)acetamide] | < 1000
CN1C(=O)C2=C(C1=O)N(CC(=O)Nc1ccc(-c3cncc(C(F)(F)F)c3)nn1)CCC2 [Compound 48, 2-(6-methyl-5,7-dioxo-2,3,4,5,6,7-hexahydro-1H-pyrrolo[3,4-b]pyridin-1-yl)-N-(6-(5-(trifluoromethyl)pyridin-3-yl)pyridazin-3-yl)acetamide] | < 100
CN1C(=O)C2=C(C1=O)N(CC(=O)Nc1ccc(-c3ccc(C(F)(F)F)cc3)nn1)CCC2 [Compound 49, 2-(6-methyl-5,7-dioxo-2,3,4,5,6,7-hexahydro-1H-pyrrolo[3,4-b]pyridin-1-yl)-N-(6-(4-(trifluoromethyl)phenyl)pyridazin-3-yl)acetamide] | < 10000
CN1C(=O)C2=C(C1=O)N(CC(=O)Nc1ccc(-c3cccc(C(F)(F)F)c3)nn1)CCC2 [Compound 50, 2-(6-methyl-5,7-dioxo-2,3,4,5,6,7-hexahydro-1H-pyrrolo[3,4-b]pyridin-1-yl)-N-(6-(3-(trifluoromethyl)phenyl)pyridazin-3-yl)acetamide] | < 100
O=C(CN1CCCC2=C1C(=O)N(C1CC1)C2=O)Nc1ccc(-c2ccc(C(F)(F)F)cc2)nn1 [Compound 51, 2-(6-cyclopropyl-5,7-dioxo-2,3,4,5,6,7-hexahydro-1H-pyrrolo[3,4-b]pyridin-1-yl)-N-(6-(4-(trifluoromethyl)phenyl)pyridazin-3-yl)acetamide] | < 1000
Cc1cncc(-c2ccc(NC(=O)CN3CCCC4=C3C(=O)N(C3CC3)C4=O)nn2)c1 [Compound 53, 2-(6-cyclopropyl-5,7-dioxo-2,3,4,5,6,7-hexahydro-1H-pyrrolo[3,4-b]pyridin-1-yl)-N-(6-(5-methylpyridin-3-yl)pyridazin-3-yl)acetamide] | < 100
O=C(CN1CCCC2=C1C(=O)N(C1CC1)C2=O)Nc1ccc(-c2cncc(C(F)(F)F)c2)nn1 [Compound 54, 2-(6-cyclopropyl-5,7-dioxo-2,3,4,5,6,7-hexahydro-1H-pyrrolo[3,4-b]pyridin-1-yl)-N-(6-(5-(trifluoromethyl)pyridin-3-yl)pyridazin-3-yl)acetamide] | < 100
O=C(CN1CCCC2=C1C(=O)N(C1CC1)C2=O)Nc1ccc(-c2cccc(C(F)(F)F)c2)nn1 [Compound 55, 2-(6-cyclopropyl-5,7-dioxo-2,3,4,5,6,7-hexahydro-1H-pyrrolo[3,4-b]pyridin-1-yl)-N-(6-(3-(trifluoromethyl)phenyl)pyridazin-3-yl)acetamide] | < 100
O=C(CN1CCCC2=C1C(=O)N(C1CC1)C2=O)Nc1ccc(-c2cccc(OC(F)(F)F)c2)nn1 [Compound 56, 2-(6-cyclopropyl-5,7-dioxo-2,3,4,5,6,7-hexahydro-1H-pyrrolo[3,4-b]pyridin-1-yl)-N-(6-(3-(trifluoromethoxy)phenyl)pyridazin-3-yl)acetamide] | < 1000
O=C(CN1CCCC2=C1C(=O)N(C1CC1)C2=O)Nc1ccc(-c2ccc(OC(F)(F)F)cc2)nn1 [Compound 57, 2-(6-cyclopropyl-5,7-dioxo-2,3,4,5,6,7-hexahydro-1H-pyrrolo[3,4-b]pyridin-1-yl)-N-(6-(4-(trifluoromethoxy)phenyl)pyridazin-3-yl)acetamide] | < 1000
O=C(CN1CCCC2=C1C(=O)N(C1CC1)C2=O)Nc1ccc(-c2cncc(Cl)c2)nn1 [Compound 58, N-(6-(5-chloropyridin-3-yl)pyridazin-3-yl)-2-(6-cyclopropyl-5,7-dioxo-2,3,4,5,6,7-hexahydro-1H-pyrrolo[3,4-b]pyridin-1-yl)acetamide] | < 100
O=C(CN1CCCC2=C1C(=O)N(C1CC1)C2=O)Nc1ccc(-c2cccnc2)nc1 [Compound 59, N-(2,3′-bipyridin-5-yl)-2-(6-cyclopropyl-5,7-dioxo-2,3,4,5,6,7-hexahydro-1H-pyrrolo[3,4-b]pyridin-1-yl)acetamide] | < 100
CC(C(=O)Nc1ccc(-c2cccnc2)nn1)N1CCCC2=C1C(=O)N(C)C2=O (centres unmarked) [Compound 60, 2-(6-methyl-5,7-dioxo-2,3,4,5,6,7-hexahydro-1H-pyrrolo[3,4-b]pyridin-1-yl)-N-(6-(pyridin-3-yl)pyridazin-3-yl)propanamide] | < 100
O=C(CN1CCCC2=C1C(=O)N(C1CC1)C2=O)Nc1ccc(-c2cncc(C(F)F)c2)nn1 [Compound 61] | < 100
Cc1cc(NC(=O)CN2CCCC3=C2C(=O)N(C2CC2)C3=O)nnc1-c1cccnc1 [Compound 62, 2-(6-cyclopropyl-5,7-dioxo-2,3,4,5,6,7-hexahydro-1H-pyrrolo[3,4-b]pyridin-1-yl)-N-(5-methyl-6-(pyridin-3-yl)pyridazin-3-yl)acetamide] | < 5000
CN1C(=O)c2c(n(CC(=O)Nc3ccc(-c4cccnc4)cn3)ccc2=O)C1=O [Compound 63, N-(3,3′-bipyridin-6-yl)-2-(6-methyl-4,5,7-trioxo-4,5,6,7-tetrahydro-1H-pyrrolo[3,4-b]pyridin-1-yl)acetamide] | < 1000
CN1C(=O)c2c(n(CC(=O)Nc3ccc(-c4cccnc4)nn3)ccc2=O)C1=O [Compound 64, 2-(6-methyl-4,5,7-trioxo-4,5,6,7-tetrahydro-1H-pyrrolo[3,4-b]pyridin-1-yl)-N-(6-(pyridin-3-yl)pyridazin-3-yl)acetamide] | < 1000
O=C(CN1CCCC2=C1C(=O)N(C1CC1)C2=O)Nc1ccc(-c2ccccc2)cc1 [Compound 67, N-([1,1′-biphenyl]-4-yl)-2-(6-cyclopropyl-5,7-dioxo-2,3,4,5,6,7-hexahydro-1H-pyrrolo[3,4-b]pyridin-1-yl)acetamide] | < 100
Cc1cncc(-c2ncc(NC(=O)CN3CCCC4=C3C(=O)N(C3CC3)C4=O)cc2C)c1 [Compound 68, 2-(6-cyclopropyl-5,7-dioxo-2,3,4,5,6,7-hexahydro-1H-pyrrolo[3,4-b]pyridin-1-yl)-N-(3,5′-dimethyl-[2,3′-bipyridin]-5-yl)acetamide] | < 100
O=C(CN1CCCC2=C1C(=O)N(C1CC1)C2=O)Nc1ccc(-c2ccc(F)nc2)nn1 [Compound 69, 2-(6-cyclopropyl-5,7-dioxo-2,3,4,5,6,7-hexahydro-1H-pyrrolo[3,4-b]pyridin-1-yl)-N-(6-(6-fluoropyridin-3-yl)pyridazin-3-yl)acetamide] | < 100
CN1C(=O)C2=C(C1=O)N(CC(=O)Nc1ccc(-c3ccccc3)cc1)CCC2 [Compound 70, N-([1,1′-biphenyl]-4-yl)-2-(6-methyl-5,7-dioxo-2,3,4,5,6,7-hexahydro-1H-pyrrolo[3,4-b]pyridin-1-yl)acetamide] | < 100
CN1C(=O)C2=C(C1=O)N(CC(=O)Nc1ccc(-c3ccncc3)nn1)CCC2 [Compound 71, 2-(6-methyl-5,7-dioxo-2,3,4,5,6,7-hexahydro-1H-pyrrolo[3,4-b]pyridin-1-yl)-N-(6-(pyridin-4-yl)pyridazin-3-yl)acetamide] | < 1000
CN1C(=O)C2=C(C1=O)N(CC(=O)Nc1ccc(-c3cncc(F)c3)nn1)CCC2 [Compound 72, N-(6-(5-fluoropyridin-3-yl)pyridazin-3-yl)-2-(6-methyl-5,7-dioxo-2,3,4,5,6,7-hexahydro-1H-pyrrolo[3,4-b]pyridin-1-yl)acetamide] | < 100
